Source: US20240116985A1, “STAPLED PEPTIDES AND METHODS THEREOF” (priority 2020, published 2024)
≈ marks a conversion by molar mass, not a printed value. Read-outs that look alike come from different tables or passages of the source.

What was measured:
[1] = biological target: T1, full-length beta-Catenin (Uniprot ID P35222) (Homo sapiens, UniProt P35222); experiment: Fluorescence polarization IC50 (beta-catenin / 5FAM-TCF4 10-53 competition); assay type: binding
T1 construct: 10 nM full-length beta-Catenin (Uniprot ID P35222)
T1 sequence (P35222 1-781): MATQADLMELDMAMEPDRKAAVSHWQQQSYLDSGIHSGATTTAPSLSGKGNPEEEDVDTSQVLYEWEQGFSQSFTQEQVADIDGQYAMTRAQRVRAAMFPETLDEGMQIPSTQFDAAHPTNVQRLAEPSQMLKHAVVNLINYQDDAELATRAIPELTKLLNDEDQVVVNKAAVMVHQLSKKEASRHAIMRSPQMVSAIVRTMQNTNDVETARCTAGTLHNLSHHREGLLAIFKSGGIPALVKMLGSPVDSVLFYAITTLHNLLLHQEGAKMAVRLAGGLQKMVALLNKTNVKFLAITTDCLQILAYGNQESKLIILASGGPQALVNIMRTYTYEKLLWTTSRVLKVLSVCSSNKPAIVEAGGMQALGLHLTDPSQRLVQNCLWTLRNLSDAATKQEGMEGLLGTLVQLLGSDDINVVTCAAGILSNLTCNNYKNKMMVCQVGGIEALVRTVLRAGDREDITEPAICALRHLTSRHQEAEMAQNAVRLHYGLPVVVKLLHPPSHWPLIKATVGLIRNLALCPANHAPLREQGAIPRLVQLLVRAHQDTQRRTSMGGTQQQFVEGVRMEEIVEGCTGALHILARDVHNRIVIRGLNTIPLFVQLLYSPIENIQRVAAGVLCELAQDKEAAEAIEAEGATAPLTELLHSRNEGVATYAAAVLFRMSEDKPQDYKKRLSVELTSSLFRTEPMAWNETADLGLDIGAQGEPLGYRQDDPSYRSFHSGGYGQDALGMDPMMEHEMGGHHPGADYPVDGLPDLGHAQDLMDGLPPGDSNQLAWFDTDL

[2] = Solubility in PBS; assay type: physicochemical
In short: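 Read-out is the HPLC peak area of the supernatant from ultracentrifuged PBS solution, scaled against a 50 μM peptide DMSO injection; value reported as [(PBS area)/(DMSO area)]*50 uM.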

[3] = CHI Log D procedure; assay type: physicochemical; conditions: for CHI Log D: pH 7.4; for chromatographic logD / logD: pH 7.4, CHI Log D
[4] = fluorescence polarization, beta-catenin, read-out: FP EC50
[5] = Table E2-1, read-out: beta-Catenin FP IC50
[6] = fluorescence polarization, read-out: beta-Catenin FP IC50

CC(=O)N1CCC[C@]12CC=CCCCC1(CCCC=CCCCCCC[C@@](C)(C(=O)N[C@@H](Cc3ccccc3)C(=O)N[C@@H](Cc3csc4ccccc34)C(=O)N[C@@H](CCC(N)=O)C(N)=O)NC(=O)[C@H](CCC(N)=O)NC(=O)[C@H](Cc3cccc(C(F)(F)F)c3)NC(=O)[C@H](C)NC(=O)[C@H](C)NC(=O)[C@H](CC(=O)O)NC(=O)[C@H](CC(=O)O)NC1=O)NC(=O)[C@H](C)NC(=O)[C@H](CC(=O)O)NC2=O (stereo partly drawn) [I-379, Ac-PL3-Asp-Ala-B5-Asp-Asp-Ala-Ala-3F3MeF-Gln-S8-Phe-BztA-Gln-NH2]
IC50 [1, 4]: 1340 nM
Solubility [2]: 50 µM (≈ 94.8 µg/mL)
CHI Log D [3]: 2.143

CC(=O)N1CCC[C@]12CC=CCCCC1(CCCC=CCCCCCC[C@@](C)(C(=O)N[C@@H](Cc3ccccc3)C(=O)N[C@@H](Cc3csc4ccccc34)C(=O)N[C@@H](CCC(N)=O)C(N)=O)NC(=O)[C@H](CCC(N)=O)NC(=O)[C@H](Cc3cccc(C(F)(F)F)c3)NC(=O)[C@H](C)NC(=O)[C@H](C)NC(=O)[C@H](CC(=O)O)NC(=O)[C@H](CC(=O)O)NC1=O)NC(=O)[C@H](C)NC(=O)[C@H](CC(=O)O)NC2=O (stereo partly drawn) [I-380, Ac-PL3-Asp-Ala-B5-Asp-Asp-Ala-Ala-3F3MeF-Gln-S8-Phe-BztA-Gln-NH2]
IC50 [1, 5]: 552 nM
IC50 [1, 4]: 552 nM
Solubility [2]: 49 µM (≈ 92.9 µg/mL)
CHI Log D [3]: 2.19

CC(=O)N1CCC[C@]12CC=CCCCC1(CCCC=CCCCCCC[C@@](C)(C(=O)N[C@@H](Cc3cccc(F)c3)C(=O)N[C@@H](Cc3csc4ccccc34)C(=O)N[C@@H](CCC(N)=O)C(N)=O)NC(=O)[C@H](C(C)C)NC(=O)[C@H](Cc3ccccc3)NC(=O)[C@H](C)NC(=O)[C@H](C)NC(=O)[C@H](CC(N)=O)NC(=O)[C@H](CC(=O)O)NC1=O)NC(=O)[C@H](C)NC(=O)[C@H](CC(=O)O)NC2=O (stereo partly drawn) [I-381, Ac-PL3-Asp-Ala-B5-Asp-Asn-Ala-Ala-Phe-Val-S8-3FF-BztA-Gln-NH2]
IC50 [1, 5]: 3650 nM
IC50 [1, 4]: 3650 nM
Solubility [2]: 10 µM (≈ 18.2 µg/mL)
CHI Log D [3]: 2.636

CC(=O)N1CCC[C@]12CC=CCCCC1(CCCC=CCCCCCC[C@@](C)(C(=O)N[C@@H](Cc3cccc(F)c3)C(=O)N[C@@H](Cc3csc4ccccc34)C(=O)N[C@@H](CCC(N)=O)C(N)=O)NC(=O)[C@H](C(C)C)NC(=O)[C@H](Cc3ccccc3)NC(=O)[C@H](C)NC(=O)[C@H](C)NC(=O)[C@H](CC(N)=O)NC(=O)[C@H](CC(=O)O)NC1=O)NC(=O)[C@H](C)NC(=O)[C@H](CC(=O)O)NC2=O (stereo partly drawn) [I-382, Ac-PL3-Asp-Ala-B5-Asp-Asn-Ala-Ala-Phe-Val-S8-3FF-BztA-Gln-NH2]
IC50 [1, 5]: 2060 nM
IC50 [1, 4]: 2060 nM
Solubility [2]: 10 µM (≈ 18.2 µg/mL)
CHI Log D [3]: 2.631

CC(=O)N1CCC[C@]12CC=CCCCC1(CCCC=CCCCCCC[C@@](C)(C(=O)N[C@@H](Cc3ccccn3)C(=O)N[C@@H](Cc3csc4ccccc34)C(=O)N[C@@H](CCC(N)=O)C(N)=O)NC(=O)[C@H](C(C)C)NC(=O)[C@H](Cc3ccccc3)NC(=O)[C@H](C)NC(=O)[C@H](C)NC(=O)[C@H](CCC(=O)O)NC(=O)[C@H](CC(=O)O)NC1=O)NC(=O)[C@H](C)NC(=O)[C@H](CC(=O)O)NC2=O (stereo partly drawn) [I-384, Ac-PL3-Asp-Ala-B5-Asp-Glu-Ala-Ala-Phe-Val-S8-2pyrA-BztA-Gln-NH2]
IC50 [1, 5]: 177 nM
IC50 [1, 4]: 177 nM
Solubility [2]: 45 µM (≈ 81.6 µg/mL)
CHI Log D [3]: 1.837

CC(=O)N1CCC[C@]12CC=CCCCC1(CCCC=CCCCCCC[C@@](C)(C(=O)N[C@@H](Cc3ccncc3)C(=O)N[C@@H](Cc3csc4ccccc34)C(=O)N[C@@H](CCC(N)=O)C(N)=O)NC(=O)[C@H](C(C)C)NC(=O)[C@H](Cc3ccccc3)NC(=O)[C@H](C)NC(=O)[C@H](C)NC(=O)[C@H](CCC(=O)O)NC(=O)[C@H](CC(=O)O)NC1=O)NC(=O)[C@H](C)NC(=O)[C@H](CC(=O)O)NC2=O (stereo partly drawn) [I-385, Ac-PL3-Asp-Ala-B5-Asp-Glu-Ala-Ala-Phe-Val-S8-4pyrA-BztA-Gln-NH2]
IC50 [1, 6]: 3150 nM
Solubility [2]: 50 µM (≈ 90.7 µg/mL)
chromatographic logD [3]: 1.71

CC(=O)N1CCC[C@]12CC=CCCCC1(CCCC=CCCCCCC[C@@](C)(C(=O)N[C@@H](Cc3ccccc3)C(=O)N[C@@H](Cc3csc4ccccc34)C(=O)N[C@@H](CCC(N)=O)C(N)=O)NC(=O)[C@H](C(C)C)NC(=O)[C@H](Cc3ccccn3)NC(=O)[C@H](C)NC(=O)[C@H](C)NC(=O)[C@H](CCC(=O)O)NC(=O)[C@H](CC(=O)O)NC1=O)NC(=O)[C@H](C)NC(=O)[C@H](CC(=O)O)NC2=O (stereo partly drawn) [I-387, Ac-PL3-Asp-Ala-B5-Asp-Glu-Ala-Ala-2pyrA-Val-S8-Phe-BztA-Gln-NH2]
IC50 [1, 4]: 2620 nM
IC50 [1, 6]: 2620 nM
Solubility [2]: 48 µM (≈ 87 µg/mL)
CHI Log D [3]: 2.136

CC(=O)N1CCC[C@]12CC=CCCCC1(CCCC=CCCCCCC[C@@](C)(C(=O)N[C@@H](Cc3ccccc3)C(=O)N[C@@H](Cc3csc4ccccc34)C(=O)N[C@@H](CCC(N)=O)C(N)=O)NC(=O)[C@H](C(C)C)NC(=O)[C@H](Cc3cccc(F)c3F)NC(=O)[C@H](C)NC(=O)[C@H](C)NC(=O)[C@H](CCC(=O)O)NC(=O)[C@H](CC(=O)O)NC1=O)NC(=O)[C@H](C)NC(=O)[C@H](CC(=O)O)NC2=O (stereo partly drawn) [I-390, Ac-PL3-Asp-Ala-B5-Asp-Glu-Ala-Ala-23FF-Val-S8-Phe-BztA-Gln-NH2]
IC50 [1, 4]: 3420 nM
IC50 [1, 6]: 3420 nM
Solubility [2]: 10 µM (≈ 18.5 µg/mL)
CHI Log D [3]: 2.587

CC(=O)N1CCC[C@]12CC=CCCCC1(CCCC=CCCCCCC[C@@](C)(C(=O)N[C@@H](Cc3ccccc3)C(=O)N[C@@H](Cc3csc4ccccc34)C(=O)N[C@@H](CCC(N)=O)C(N)=O)NC(=O)[C@H](C(C)C)NC(=O)[C@H](Cc3cccc(F)c3F)NC(=O)[C@H](C)NC(=O)[C@H](C)NC(=O)[C@H](CCC(=O)O)NC(=O)[C@H](CC(=O)O)NC1=O)NC(=O)[C@H](C)NC(=O)[C@H](CC(=O)O)NC2=O (stereo partly drawn) [I-391, Ac-PL3-Asp-Ala-B5-Asp-Glu-Ala-Ala-23FF-Val-S8-Phe-BztA-Gln-NH2]
IC50 [1, 4]: 1910 nM
IC50 [1, 6]: 1910 nM
Solubility [2]: 10 µM (≈ 18.5 µg/mL)
CHI Log D [3]: 2.585

CC(=O)N1CCC[C@]12CC=CCCCC1(CCCC=CCCCCCC[C@@](C)(C(=O)N[C@@H](Cc3ccccc3)C(=O)N[C@@H](Cc3csc4ccccc34)C(=O)N[C@@H](CCC(N)=O)C(N)=O)NC(=O)[C@H](C(C)C)NC(=O)[C@H](CC3CCCC3)NC(=O)[C@H](C)NC(=O)[C@H](C)NC(=O)[C@H](CCC(=O)O)NC(=O)[C@H](CC(=O)O)NC1=O)NC(=O)[C@H](C)NC(=O)[C@H](CC(=O)O)NC2=O (stereo partly drawn) [I-392, Ac-PL3-Asp-Ala-B5-Asp-Glu-Ala-Ala-CypA-Val-S8-Phe-BztA-Gln-NH2]
IC50 [1, 6]: 5000 nM
Solubility [2]: 10 µM (≈ 18 µg/mL)
logD [3]: 2.52

CC(=O)N1CCC[C@]12CC=CCCCC1(CCCC=CCCCCCC[C@@](C)(C(=O)N[C@@H](CC3CCCC3)C(=O)N[C@@H](Cc3csc4ccccc34)C(=O)N[C@@H](CCC(N)=O)C(N)=O)NC(=O)[C@H](C(C)C)NC(=O)[C@H](Cc3ccccc3)NC(=O)[C@H](C)NC(=O)[C@H](C)NC(=O)[C@H](CCC(=O)O)NC(=O)[C@H](CC(=O)O)NC1=O)NC(=O)[C@H](C)NC(=O)[C@H](CC(=O)O)NC2=O (stereo partly drawn) [I-393, Ac-PL3-Asp-Ala-B5-Asp-Glu-Ala-Ala-Phe-Val-S8-CypA-BztA-Gln-NH2]
IC50 [1, 6]: 1950 nM
Solubility [2]: 10 µM (≈ 18 µg/mL)
logD [3]: 2.64

CC(=O)N1CCC[C@]12CC=CCCCC1(CCCC=CCOC(=O)N(C)CCC[C@@](C)(C(=O)N[C@@H](Cc3cccc(F)c3)C(=O)N[C@@H](Cc3csc4ccccc34)C(=O)N[C@@H](CCC(N)=O)C(N)=O)NC(=O)[C@H](C(C)C)NC(=O)[C@H](Cc3ccccc3)NC(=O)[C@H](C)NC(=O)[C@H](C)NC(=O)[C@H](Cc3c[nH]cn3)NC(=O)[C@H](CC(=O)O)NC1=O)NC(=O)[C@H](C)NC(=O)[C@H](CC(=O)O)NC2=O (stereo partly drawn) [I-398, Ac-PL3-Asp-Ala-B5-Asp-His-Ala-Ala-Phe-Val-SeN-3FF-BztA-Gln-NH2]
IC50 [1, 6]: 2150 nM
Solubility ([2]; Solubility (uM)): 46 µM (≈ 86.6 µg/mL)
chromatographic logD [3]: 1.85
